Where “and” joins values, the source holds several entries; their conditions need not be identical. Identical values can stand only once. Like-named read-outs stand apart in the source and are kept apart here.
Tests used:
urease [1] = experiment: Phenol-hypochlorite urease assay, lysate of E. coli with urease gene cluster excluding ureG (pHP8080ΔG) supplemented with metal-treated UreG
UreG [2] = target: T1, UreG (Helicobacter pylori, UniProt Q09066); experiment: biochemical; assay type: biochemical, H. pylori
Protocol: (§1) A Malachite Green Phosphate Assay Kit (Abcam) was utilized to quantify the hydrolysis of GTP by UreG under various conditions. […] GTPase activity of UreG was triggered through the addition of 10 mM KHCO3, after which the reaction was incubated at 37°C for 30 min; then, the free phosphate from hydrolysis of GTP was determined. […] To eliminate the potential effect of small compounds on malachite green assay, the assay included a subtraction of the absorbance of reaction with the same amounts of compounds but without UreG enzyme for each reading.

[3] = set-up: method as in PMID 22179820; details: cited from earlier work
[4] = target: urease from jack bean, P. mirabilis, and K. aerogenes; details: competitive inhibitor; cited from earlier work
urease [5] = target: T2, urease (Pseudomonas aeruginosa, UniProt Q9HUU5+Q9HUU6+Q9HUU8); experiment: Urease activity of extracted P. aeruginosa urease (in vitro); assay type: biochemical
T2 construct: endogenous in cells

urease [6] = system: urease
urease [7] = target: T3, urease (Proteus mirabilis, UniProt P17086+P17087+P17088); assay type: biochemical
T3 construct: endogenous in cells

H. pylori = experiment: Growth of H. pylori in neutral and acidic brucella broth (OD600); assay type: cell-based
[8] = system: AGS cells exposed to H. pylori; experiment: Cell infection model: AGS cells exposed to H. pylori pre-cultured with inhibitors; assay type: cell-based, human; details: H. pylori pre-cultured with 10 μM inhibitor 24 h; MOI 20; 24 h infection; Hp alone 28.8%
urease [9] = system: urease; remark: listed apart in the source
urease [10] = system: urease; remark: listed apart in the source
Target sequence in this assay (Q9HUU5 whole entry): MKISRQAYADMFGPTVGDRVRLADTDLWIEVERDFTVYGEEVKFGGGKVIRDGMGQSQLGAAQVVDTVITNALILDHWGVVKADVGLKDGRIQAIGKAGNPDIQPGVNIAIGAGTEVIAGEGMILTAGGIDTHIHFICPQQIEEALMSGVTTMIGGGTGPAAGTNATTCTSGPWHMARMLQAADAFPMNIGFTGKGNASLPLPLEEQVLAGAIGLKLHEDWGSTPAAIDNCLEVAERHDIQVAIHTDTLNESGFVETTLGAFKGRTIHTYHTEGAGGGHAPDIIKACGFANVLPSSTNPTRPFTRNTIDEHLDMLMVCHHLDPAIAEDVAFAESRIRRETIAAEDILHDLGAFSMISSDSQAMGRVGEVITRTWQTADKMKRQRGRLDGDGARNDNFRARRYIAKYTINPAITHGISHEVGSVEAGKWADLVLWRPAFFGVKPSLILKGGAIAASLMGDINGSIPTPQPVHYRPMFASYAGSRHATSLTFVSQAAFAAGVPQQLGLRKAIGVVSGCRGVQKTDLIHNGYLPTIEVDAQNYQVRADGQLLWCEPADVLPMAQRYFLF
Target sequence in this assay (Q9HUU6 whole entry, further chain): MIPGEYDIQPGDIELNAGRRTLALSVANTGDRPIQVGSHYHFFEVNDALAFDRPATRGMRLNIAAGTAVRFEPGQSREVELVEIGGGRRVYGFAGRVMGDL
Target sequence in this assay (Q9HUU8 whole entry, further chain): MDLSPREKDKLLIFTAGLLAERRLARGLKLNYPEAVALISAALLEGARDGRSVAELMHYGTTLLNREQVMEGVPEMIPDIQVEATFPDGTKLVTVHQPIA

[11] = system: AGS cells with H. pylori infection; experiment: AGS cells with H. pylori infection, inhibitors administrated to the AGS cells (S20 Fig); assay type: cell-based, human; details: 10 μM administrated to AGS cells with H. pylori infection
Source text: As expected, low viability of AGS with the supplement of cmpd4 and cmpd8 was observed due to the toxicity of small compounds to mammalian cells. […] (PNG) Click here for additional data file.

UreG [12] = target: T1, UreG
Protocol: as §1
(PNG) Click here for additional data file.

H. pylori urease [13] = target: T4, H. pylori urease (Helicobacter pylori, UniProt P14916+P69996); experiment: cell-based; assay type: cell-based
Target sequence in this assay (P14916 whole entry, looked up): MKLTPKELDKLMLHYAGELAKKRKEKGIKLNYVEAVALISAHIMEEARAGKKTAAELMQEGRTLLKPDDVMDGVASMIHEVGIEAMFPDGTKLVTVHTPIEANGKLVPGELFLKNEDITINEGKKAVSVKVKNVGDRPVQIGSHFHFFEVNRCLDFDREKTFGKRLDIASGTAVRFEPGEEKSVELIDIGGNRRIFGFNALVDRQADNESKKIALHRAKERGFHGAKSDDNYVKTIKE
Target sequence in this assay (P69996 whole entry, looked up): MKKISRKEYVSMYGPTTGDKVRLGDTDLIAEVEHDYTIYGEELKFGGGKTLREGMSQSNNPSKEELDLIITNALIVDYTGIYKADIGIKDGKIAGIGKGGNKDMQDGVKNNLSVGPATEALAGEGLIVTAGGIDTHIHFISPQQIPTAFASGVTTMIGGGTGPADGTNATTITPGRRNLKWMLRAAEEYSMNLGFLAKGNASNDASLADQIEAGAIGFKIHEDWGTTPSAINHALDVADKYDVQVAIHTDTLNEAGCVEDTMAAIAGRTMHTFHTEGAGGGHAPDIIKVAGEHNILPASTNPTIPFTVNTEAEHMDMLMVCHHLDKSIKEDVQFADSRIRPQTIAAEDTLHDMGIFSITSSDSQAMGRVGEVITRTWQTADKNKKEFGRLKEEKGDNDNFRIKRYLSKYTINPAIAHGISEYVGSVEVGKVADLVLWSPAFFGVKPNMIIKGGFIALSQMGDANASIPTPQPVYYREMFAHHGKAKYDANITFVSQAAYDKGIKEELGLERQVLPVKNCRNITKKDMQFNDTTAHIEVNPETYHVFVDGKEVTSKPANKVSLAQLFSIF

urease [14] = system: urease; remark: listed apart in the source
H. pylori urease [15] = target: T4, H. pylori urease; assay type: biochemical; set-up: endogenous in cells; host or cells: H. pylori strain 26695 or a clinical isolate
Target sequence in this assay (P69996 whole entry): as the sequence (P69996 whole entry, looked up) above
Target sequence in this assay (P14916 whole entry): as the sequence (P14916 whole entry, looked up) above

urease [16] = system: urease; remark: listed apart in the source
Target sequence in this assay (P17088 whole entry): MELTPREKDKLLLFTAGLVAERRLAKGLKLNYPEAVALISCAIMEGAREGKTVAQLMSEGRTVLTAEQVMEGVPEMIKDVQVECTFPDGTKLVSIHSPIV
Target sequence in this assay (P17087 whole entry, further chain): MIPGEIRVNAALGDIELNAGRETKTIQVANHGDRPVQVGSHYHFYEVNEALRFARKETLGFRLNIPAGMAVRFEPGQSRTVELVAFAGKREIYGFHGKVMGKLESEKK
Target sequence in this assay (P17086 whole entry, further chain): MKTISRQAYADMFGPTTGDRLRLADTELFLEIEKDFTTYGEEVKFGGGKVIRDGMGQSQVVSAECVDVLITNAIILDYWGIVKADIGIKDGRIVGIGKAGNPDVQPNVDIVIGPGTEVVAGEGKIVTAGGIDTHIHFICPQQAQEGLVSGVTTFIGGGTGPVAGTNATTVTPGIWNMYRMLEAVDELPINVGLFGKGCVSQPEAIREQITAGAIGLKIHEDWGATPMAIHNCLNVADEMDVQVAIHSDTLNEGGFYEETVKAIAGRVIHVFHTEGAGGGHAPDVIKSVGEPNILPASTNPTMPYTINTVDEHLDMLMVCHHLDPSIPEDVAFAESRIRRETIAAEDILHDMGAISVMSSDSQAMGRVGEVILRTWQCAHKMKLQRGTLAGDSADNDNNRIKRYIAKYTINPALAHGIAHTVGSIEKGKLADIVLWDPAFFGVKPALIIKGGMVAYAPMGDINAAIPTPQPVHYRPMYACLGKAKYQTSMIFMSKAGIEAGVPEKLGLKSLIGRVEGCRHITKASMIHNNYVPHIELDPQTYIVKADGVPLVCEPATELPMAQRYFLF

urease [17] = system: urease; remark: listed apart in the source
urease [18] = system: urease; remark: listed apart in the source
urease [19] = system: urease; remark: listed apart in the source
[20] = target: the molecule itself; experiment: SEC; gel filtration of apo-UreE alone, with or without three molar equivalents of Bi(III) (little effect on the dimer)
[21] = target: the molecule itself; experiment: SEC; Superdex 200 10/300 GL; Ni-loaded UreG (UreG with NiSO4 1x, GTP 10x, MgSO4 1 mM) with 1 mM KHCO3; run with or without two molar equivalents of Bi(III) (as BiNTA), which lowered the dimer peak and gave a high molecular weight oligomer
[22] = increasing amounts of CBS during bacterial growth

T2 sequence (Q9HUU6 whole entry): as the sequence (Q9HUU6 whole entry, further chain) above
T2 sequence (Q9HUU5 whole entry): as the sequence (Q9HUU5 whole entry) above
T2 sequence (Q9HUU8 whole entry): as the sequence (Q9HUU8 whole entry, further chain) above
T3 sequence (P17087 whole entry): as the sequence (P17087 whole entry, further chain) above
T3 sequence (P17088 whole entry): as the sequence (P17088 whole entry) above
T3 sequence (P17086 whole entry): as the sequence (P17086 whole entry, further chain) above

[Bi+3] [Bi(III), reference compound]
Normalized urease activity(%) (urease [1]; Ni-UreG+Bix1, incubation 40 min): 47.6% | Normalized urease activity(%) (urease [1]; Ni-UreG+Bix2, incubation 40 min): 9.3% | Normalized urease activity(%) (urease [1]; Ni-UreG+Bix3, incubation 40 min): 5.8% | Normalized GTPase activity(%) (UreG [2]; Ni-UreG+Bix1): 29.0% | Normalized GTPase activity(%) (UreG [2]; Ni-UreG+Bix2): 0.8% | Normalized GTPase activity(%) (UreG [2]; Ni-UreG+Bix3): 1.7% | inhibition of GTPase enzyme activity (UreG [2]; further addition of Bi(III) to Ni-UreG): complete inhibition

O=C([O-])CN(CC(=O)[O-])CC(=O)[O-].[Bi+3] [BiNTA, Bi nitrilotriacetic acid]
log Ka of Bi-NTA [3]: 17.55

OB(O)O [boric acid]
Ki [4]: mM levels

colloidal bismuth subcitrate [CBS]
Normalized urease activity(%) (in vitro) (urease [5]; CBS 2.0 μM): 102.2% | Normalized urease activity(%) (in vitro) (urease [5]; CBS 5.0 μM): 93.5% | Normalized urease activity(%) (in vitro) (urease [5]; CBS 10.0 μM): 100.7% | Normalized urease activity(%) (in vitro) (urease [5]; CBS 20.0 μM): 99.1% | Normalized urease activity(%) (in vitro) (urease [5]; CBS 50.0 μM): 95.8% | Normalized urease activity(%) (in vitro) (urease [5]; CBS 100.0 μM): 101.3% | Normalized urease activity(%) (in vitro) (urease [5]; CBS 200.0 μM): 99.8% | Normalized urease activity(%) (urease [6]; CBS 20 μM): 63.4% | Normalized urease activity(%) (urease [6]; CBS 50 μM): 37.9% | Normalized urease activity(%) (urease [6]; CBS 100 μM): 37.9% | Normalized urease activity(%) (urease [6]; CBS 200 μM): 25.6% | ureolytic activity compared with that without CBS treatment (urease [6]; [22]): approximately 20% | Normalized urease activity(%) (in vitro) (urease [7]; CBS 2.0 μM): 105.5% | Normalized urease activity(%) (in vitro) (urease [7]; CBS 5.0 μM): 122.1% | Normalized urease activity(%) (in vitro) (urease [7]; CBS 10.0 μM): 103.7% | Normalized urease activity(%) (in vitro) (urease [7]; CBS 20.0 μM): 121.2% | Normalized urease activity(%) (in vitro) (urease [7]; CBS 50.0 μM): 96.7% | Normalized urease activity(%) (in vitro) (urease [7]; CBS 100.0 μM): 105.5% | Normalized urease activity(%) (in vitro) (urease [7]; CBS 200.0 μM): 111.5% | OD600(pH5) (H. pylori; acidic brucella broth pH 5.0, 24 h, control 0.93): 0.23 and 0.239 | OD600 (pH7) (H. pylori; neutral medium, 24 h, control 0.18): 0.127 | Normalized cell survival (%) [8]: 65.8% ± 9.9% and 65.7658% | Normalized urease activity(%) (in vitro) (urease [9]; CBS 25.0 μM): 109.8% | Normalized urease activity(%) (in vitro) (urease [9]; CBS 50.0 μM): 113.4% | Normalized urease activity(%) (in vitro) (urease [9]; CBS 100.0 μM): 105.1% | Normalized urease activity(%) (in vitro) (urease [9]; CBS 200.0 μM): 103.9% | Normalized urease activity(%) (urease [10]; log(CBS[μM]) 0.69897): 76.4151% | Normalized urease activity(%) (urease [10]; log(CBS[μM]) 1): 79.2453% | Normalized urease activity(%) (urease [10]; log(CBS[μM]) 1.30103): 68.1604% | Normalized urease activity(%) (urease [10]; log(CBS[μM]) 1.79588): 36.5566% | Ammonia in medium [11]: 0.6839 mM | Normalized cell survival (%) [11]: 78.3784% | Normalized GTPase activity(%) (UreG [12]; CBS 20 μM): 50.4% | Normalized GTPase activity(%) (UreG [12]; CBS 50 μM): 22.6% | Normalized GTPase activity(%) (UreG [12]; CBS 100 μM): 35.8% | Normalized GTPase activity(%) (UreG [12]; CBS 200 μM): 20.4% | GTPase activity compared with that without CBS treatment (UreG [12]; [22]): approximately 20% | Normalized urease activity(%) (in vivo) (H. pylori urease [13]; CBS 2.0 μM): 89.4% | Normalized urease activity(%) (in vivo) (H. pylori urease [13]; CBS 5.0 μM): 57.6% | Normalized urease activity(%) (in vivo) (H. pylori urease [13]; CBS 10.0 μM): 35.6% | Normalized urease activity(%) (in vivo) (H. pylori urease [13]; CBS 20.0 μM): 10.2% | drop in urease activity (H. pylori urease [13]; CBS 20 μM in culture medium): ca. 90% | Normalized urease activity(%) (H. pylori urease [13]; log(CBS[μM]) 0): 94.7245% | Normalized urease activity(%) (H. pylori urease [13]; log(CBS[μM]) 0.30103): 89.449% | Normalized urease activity(%) (H. pylori urease [13]; log(CBS[μM]) 0.69897): 57.604% | Normalized urease activity(%) (H. pylori urease [13]; log(CBS[μM]) 0.845098): 46.6188% | Normalized urease activity(%) (H. pylori urease [13]; log(CBS[μM]) 1): 35.6336% | Normalized urease activity(%) (H. pylori urease [13]; log(CBS[μM]) 1.17609): 22.938% | Normalized urease activity(%) (H. pylori urease [13]; log(CBS[μM]) 1.30103): 10.2424% | Normalized urease activity(%) (H. pylori urease [13]; log(CBS[μM]) 1.39794): 10.165% | Normalized urease activity(%) (H. pylori urease [13]; log(CBS[μM]) 1.47712): 10.0876% | Normalized urease activity(%) (in vitro) (urease [14]; CBS 2.0 μM): 117.5% | Normalized urease activity(%) (in vitro) (urease [14]; CBS 5.0 μM): 100.8% | Normalized urease activity(%) (in vitro) (urease [14]; CBS 10.0 μM): 95.4% | Normalized urease activity(%) (in vitro) (urease [14]; CBS 20.0 μM): 96.5% | Normalized urease activity(%) (in vitro) (urease [14]; CBS 50.0 μM): 100.0% | Normalized urease activity(%) (in vitro) (urease [14]; CBS 100.0 μM): 106.8% | Normalized urease activity(%) (in vitro) (urease [14]; CBS 200.0 μM): 98.8% | Normalized urease activity(%) (in vitro) (H. pylori urease [15]; CBS 2.0 μM): 102.1% | Normalized urease activity(%) (in vitro) (H. pylori urease [15]; CBS 5.0 μM): 93.2% | Normalized urease activity(%) (in vitro) (H. pylori urease [15]; CBS 10.0 μM): 103.8% | Normalized urease activity(%) (in vitro) (H. pylori urease [15]; CBS 20.0 μM): 86.7% | Normalized urease activity(%) (in vitro) (H. pylori urease [15]; CBS 30.0 μM): 92.9% | Normalized urease activity(%) (in vitro) (H. pylori urease [15]; CBS 50.0 μM): 109.1% | Normalized urease activity(%) (in vitro) (H. pylori urease [15]; CBS 100.0 μM): 102.9% | Normalized urease activity(%) (in vitro) (H. pylori urease [15]; CBS 200.0 μM): 94.9% | inhibitory effect on extracted H. pylori urease (H. pylori urease [15]; CBS up to 400 μM): little inhibitory effect | Normalized urease activity(%) (urease [16]; log(CBS[μM]) 1.29073): 42.0322% | Normalized urease activity(%) (urease [16]; log(CBS[μM]) 1.59176): 39.1227% | Normalized urease activity(%) (urease [16]; log(CBS[μM]) 1.89279): 25.3581% | Normalized urease activity(%) (urease [16]; log(CBS[μM]) 2.19382): 25.0224% | Normalized urease activity(%) (in vitro) (urease [17]; CBS 2.0 μM): 87.7% | Normalized urease activity(%) (in vitro) (urease [17]; CBS 5.0 μM): 84.1% | Normalized urease activity(%) (in vitro) (urease [17]; CBS 10.0 μM): 87.2% | Normalized urease activity(%) (in vitro) (urease [17]; CBS 50.0 μM): 91.4% | Normalized urease activity(%) (in vitro) (urease [17]; CBS 100.0 μM): 87.4% | Normalized urease activity(%) (in vitro) (urease [17]; CBS 200.0 μM): 86.8% | Normalized urease activity(%) (in vivo) (urease [18]; CBS 1.5 μM): 92.5% | Normalized urease activity(%) (in vivo) (urease [18]; CBS 3.0 μM): 74.5% | Normalized urease activity(%) (in vivo) (urease [18]; CBS 6.0 μM): 62.3% | Normalized urease activity(%) (in vivo) (urease [18]; CBS 12.0 μM): 64.2% | Normalized urease activity(%) (in vivo) (urease [18]; CBS 25.0 μM): 41.5% | Normalized urease activity(%) (urease [18]; log(CBS[μM]) 0.176091): 92.4528% | Normalized urease activity(%) (urease [18]; log(CBS[μM]) 0.477121): 74.5283% | Normalized urease activity(%) (urease [18]; log(CBS[μM]) 1.39794): 41.5094% | Normalized urease activity(%) (urease [18]; log(CBS[μM]) 3): 16.0377% | Normalized urease activity(%) (urease [18]; log(CBS[μM]) 3.30103): 13.2075% | Normalized urease activity(%) (urease [18]; log(CBS[μM]) 3.60206): 20.7547% | Normalized urease activity(%) (in vitro) (urease [19]; CBS 25.0 μM): 111.2% | Normalized urease activity(%) (in vitro) (urease [19]; CBS 50.0 μM): 127.8% | Normalized urease activity(%) (in vitro) (urease [19]; CBS 100.0 μM): 125.1% | Normalized urease activity(%) (in vitro) (urease [19]; CBS 200.0 μM): 113.5%

B1: Helicobacter pylori urease accessory protein UreE (natural protein)
chain: MIIERLVGNLRDLNPLDFSVDHVDLEWFETRKKIARFKTRQGKDIAIRLKDAPKLGLSQGDILFKEEKEIIAVNILDSEVIHIQAKSVAEVAKICYEIGNRHAALYYGESQFEFKTPFEKPTLALLEKLGVQNRVLSSKLDSKERLTVSMPHSEPNFKVSLASDFKVVVK
notes: also called apo-UreE
stoichiometry N [20]: 2

B2: Helicobacter pylori urease accessory protein UreG (natural protein)
chain: MVKIGVCGPVGSGKTALIEALTRHMSKDYDMAVITNDIYTKEDAEFMCKNSVMPRERIIGVETGGCPHTAIREDASMNLEAVEEMHGRFPNLELLLIESGGDNLSATFNPELADFTIFVIDVAEGDKIPRKGGPGITRSDLLVINKIDLAPYVGADLKVMERDSKKMRGEKPFIFTNIRAKEGLDDVIAWIKRNALLED
notes: also called HpUreG; apo-UreG; source: E. coli BL21(DE3), purified (HisTrap Ni-NTA, thrombin cleavage, EDTA, Superdex 75)
stoichiometry N [21]: 2

Source: publication PMC5779714, “Metallochaperone UreG serves as a new target for design of urease inhibitor: A novel strategy for development of antimicrobials” (PLoS Biology, 2018)
